Holding throughout (format): in vivo
The test system of one assay is Aphis gossypii. Nature of the assay: Soil treatment test on Aphis gossypii on cucumber (Test Example 9). The note with it: 168 h, 5 ml treatment solution in contact with soil, seven days after putting insects, read-out: controlling value. The procedure: On the other hand, cucumber was planted in a polyethylene cup with a plurality of small holes on the bottom and grown until the first true leaf was spread. A cup in which cucumber was planted was put in a plastic cup with 5 ml of the test treatment solution, so that the soil in the cup was in contact with the treatment liquid. After five days, about 20Aphis gossypii were allowed to parasitize the cucumber, and seven days after putting insects, the number of Aphis gossypii was investigated, and the controlling value was calculated according to the following equation. Controlling value (%)={1−(Cb×Tai)/([…])}×100 In the equation, the symbols represent as follows. Cb: the number of insects in a non-treated section before treatment Cai: the number of insects in a non-treated section on observation Tb: the number of insects in a treated section before treatment Tai: the number of insects in a treated section on observation

Assay [1] relates to Musca domestica. Nature of the assay: Filter paper/sucrose bait death rate test on Musca domestica (Test Example 5). Particulars: female imagoes of Musca domestica, 0.7 ml on filter paper, after 24 hours. The essentials:
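Ten female imagoes were confined in a sealed cup over a filter paper treated with 0.7 ml of test solution and 30 mg sucrose bait. Mortality was scored at 24 h and expressed as percent of tested insects killed.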

For assay [2], the system named is Culex pipiens pallens. Nature of the assay: Knockdown spray test on adult Culex pipiens pallens (Test Example 4). Particulars: topical, 0.25 h, active ingredient 0.1% w/v, 0.5 ml sprayed, within 15 minutes, read-out: knockdown rate of the test insects within 15 minutes. The essentials:
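Knockdown counts were taken 2, 5 and 15 min after spraying and expressed as percent of the 10 adults tested. For the spray, 0.5 ml of solution was applied by spray gun (0.4 kg/cm^2) from 30 cm above a gauze-covered cup in a test chamber; the cup was taken out right after spraying.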

In assay [3] the test system is Blattella germanica. Nature of the assay: Knockdown spray test on Blattella germanica, 2.0% w/v oil formulation (Test Example 1). Particulars: topical, 0.25 h, active ingredient 2.0% w/v, 1.5 ml sprayed, within 15 minutes, read-out: knockdown rate of the test insects within 15 minutes. The essentials:
(§1)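 Ten German cockroaches (5 males, 5 females) in a mesh-bottomed, butter-walled container were sprayed with 1.5 ml test solution from 60 cm at 0.42 kg/cm^2 inside a chamber.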

Assay [4] has as its system Musca domestica. Nature of the assay: Knockdown spray test on adult Musca domestica (Test Example 3). The note with it: topical, 0.25 h, active ingredient 2.0% w/v, 0.5 ml sprayed, within 15 minutes, read-out: knockdown rate of the test insects within 15 minutes. The essentials:
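Ten adult house flies (5 male, 5 female) in a gauze-covered cup sprayed with 0.5 ml test solution from 30 cm at 0.9 kg/cm^2 inside a chamber, then removed. Knocked-down flies counted at 2, 5 and 15 min and expressed as % of insects tested.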

Assay [5] relates to Blattella germanica. Put plainly: Knockdown spray test on Blattella germanica, 0.1% w/v oil formulation (Test Example 2). Particulars: topical, 0.25 h, active ingredient 0.1% w/v, 1.5 ml sprayed, within 15 minutes, read-out: knockdown rate of the test insects within 15 minutes. The essentials: as §1
Assay [6] concerns Culex pipiens pallens. Nature of the assay: Larvicidal test on Culex pipiens pallens, one day (Test Example 6). The note with it: 24 h; last-instar larvae of Culex pipiens pallens; 3.5 ppm in water; one day later; read-out: death rate. The procedure: Each of the formulations of Compounds of Present Invention (39), (63), (71), (72), (92), (93), (95), (106), (150), (171), (170), (181), (182), (183), (187), (188), (189), (190), (191), (192), (200), (201), (201), (234), (246), (290) and (299) obtained in Formulation Example 15 was diluted with water, so as to have a concentration of the active ingredient of 500 ppm, to prepare a test drug solution.
20 last-instar larvae of Culex pipiens pallens were released into a liquid to which 0.7 ml of the above test drug solution was added to 100 ml of ion-exchanged water (a concentration of the active ingredient of 3.5 ppm). One day later, the life and death of the Culex pipiens pallens was examined, and the death rate was calculated. The death rate was calculated by the following equation.
Death rate (%)=(Number of dead insects/Number of tested insects)×100

Assay [7] has as its system Culex pipiens pallens. Nature of the assay: Larvicidal test on Culex pipiens pallens, eight days (Test Example 7). The note with it: 192 h; last-instar larvae of Culex pipiens pallens; 3.5 ppm in water; eight days later; read-out: death rate. The essentials: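 Twenty last-instar larvae placed in 100 ml ion-exchanged water containing test drug at 3.5 ppm active ingredient. Mortality scored after eight days; death rate = dead/tested × 100.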

The test system of the next assay is Plutella xylostella. Nature of the assay: Foliar spray test on Plutella xylostella on cabbage (Test Example 10). The note with it: 120 h, third instar larvae of Plutella xylostella on cabbage, 500 ppm spray 20 ml/cup, after five days, read-out: controlling value. The essentials:
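Cabbage at the third–fourth true-leaf stage sprayed with test solution at 20 ml/cup, dried, then infested with 10 third-instar larvae. Insects counted after five days; controlling value (%) calculated from treated and non-treated counts before treatment and at observation.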

A further assay deals with Spodoptera litura. Nature of the assay: Foliar spray test on Spodoptera litura on cabbage (Test Example 11). The note with it: 96 h, fourth instar larvae of Spodoptera litura on cabbage, 500 ppm spray 20 ml/cup, after 4 days, read-out: controlling value. The procedure: On the other hand, cabbage was planted in a polyethylene cup, and grown until the third-fourth true leaf was spread. The test spray solution was sprayed to the cabbage at a ratio of 20 ml/cup. After the drug solution sprayed orn the cabbage was dried, 10 fourth instar larvae of Spodoptera litura were allowed to parasitize the cabbage. After 4 days, the number of surviving Spodoptera litura on the cabbage leaves was examined, and the controlling value was calculated according to the following equation. Controlling value (%)={1−(Cb×Tai)/([…])}×100 In the equation, the symbols represent as follows. Cb: the number of insects in a non-treated section before treatment Cai: the number of insects in a non-treated section on observation Tb: the number of insects in a treated section before treatment Tai: the number of insects in a treated section on observation

With `CCCc1cc(C(=O)NCC2CCOC2)n(C)n1` (centres unmarked) [(3), N-(tetrahydrofuran-3-ylmethyl)-1-methyl-3-propyl-1H-pyrazole-5-carboxamide], the pest or weed control at 500 ppm in the assay on Aphis gossypii is at least 90%.
As for `O=C(NCC1CCOC1)c1cn(Cc2ccccc2)nn1` (centres unmarked) [(9)], the pest or weed control at 500 ppm with Musca domestica [1] and with Aphis gossypii was at least 90% throughout.
On to `O=C(NCCC1CCOCC1)c1cc(COCc2ccccc2)on1` [(18), N-[2-(tetrahydropyran-4-yl)ethyl]-5-benzyloxymethylisoxazole-3-carboxamide], for which, in the assay on Culex pipiens pallens [2], the pest or weed control at 0.1 % strength was at least 80%. Further, in the assay on Aphis gossypii, the pest or weed control at 500 ppm is at least 90%.
Turning to `O=C(NCCC1CCOC1)c1cc(COCc2ccccc2)on1` (centres unmarked) [(30), N-[2-(tetrahydrofuran-3-yl)ethyl]-5-benzyloxymethylisoxazole-3-carboxamide], the pest or weed control at 2 % strength in the assay with Blattella germanica [3] and in the assay with Musca domestica [4] was at least 80% in each case. Further, the pest or weed control at 0.1 % strength with Culex pipiens pallens [2] was at least 80%. The pest or weed control at 500 ppm with Aphis gossypii is at least 90%.
With `O=C(NCC1COCCO1)c1cc(COCc2ccccc2)on1` (centres unmarked) [(31)], in the assay on Blattella germanica [3], the pest or weed control at 2 % strength was at least 80%. In addition, the pest or weed control at 0.1 % strength in the assay with Culex pipiens pallens [2] is at least 80%. Besides, the pest or weed control at 500 ppm in the assay with Aphis gossypii was at least 90%.
In the case of `O=C(NC[C@H]1CCOC1)c1cc(COCc2ccccc2)on1` [(33), N—[(R)-tetrahydrofuran-3-ylmethyl]-5-benzyloxymethylisoxazole-3-carboxamide], the pest or weed control at 2 % strength in the assay with Blattella germanica [3] and in the assay with Musca domestica [4] was at least 80% each time. Further, the pest or weed control at 0.1 % strength in the assay with Culex pipiens pallens [2] was at least 80%. The pest or weed control at 500 ppm with Aphis gossypii is at least 90%.
Consider `CC1(CNC(=O)c2cc(COCc3ccccc3)on2)CCOC1` (centres unmarked) [(36), N-(3-methyltetrahydrofuran-3-ylmethyl)-5-benzyloxymethylisoxazole-3-carboxamide], for which the pest or weed control at 2 % strength in the assay with Blattella germanica [3] and with Musca domestica [4] was at least 80% throughout. The pest or weed control at 0.1 % strength in the assay on Culex pipiens pallens [2] was at least 80%. For the same molecule, the pest or weed control at 500 ppm in the assay on Aphis gossypii is at least 90%.
As to `O=C(NC1CCOCC1)c1cc(COCc2ccccc2)on1` [(43), N-(tetrahydropyran-4-yl)-5-benzyloxymethylisoxazole-3-carboxamide], in the assay on Blattella germanica [3], the pest or weed control at 2 % strength was at least 80%. For the same molecule, the pest or weed control at 0.1 % strength with Culex pipiens pallens [2] was at least 80%. Moreover, the pest or weed control at 500 ppm in the assay with Aphis gossypii is at least 90%.
Regarding `CCCCn1cc(C(=O)NCC2CCOC2)cn1` (centres unmarked) [(51), N-(tetrahydrofuran-3-ylmethyl)-1-butyl-1H-pyrazole-4-carboxamide], the pest or weed control at 500 ppm in the assay on Aphis gossypii is at least 90%.
For `Cn1nc(COCc2ccccc2)cc1C(=O)NCC1CCOC1` (centres unmarked) [(52), N-(tetrahydrofuran-3-ylmethyl)-3-benzyloxymethyl-1-methyl-1H-pyrazole-5-carboxamide], in the assay on Aphis gossypii, the pest or weed control at 500 ppm is at least 90%.
On to `CCCCn1cc(C(=O)NCC2CCOC2)nn1` (centres unmarked) [(54), N-(tetrahydrofuran-3-ylmethyl)-1-butyl-1H-1,2,3-triazole-4-carboxamide], for which the pest or weed control at 500 ppm with Musca domestica [1] and in the assay with Aphis gossypii was at least 90% throughout.
Consider `CCCCc1nc(C(=O)NCC2CCOC2)no1` (centres unmarked) [(57), N-(tetrahydrofuran-3-ylmethyl)-5-butyl-1,2,4-oxadiazole-3-carboxamide], for which, in the assay with Aphis gossypii, the pest or weed control at 500 ppm was at least 90%.
As for `CCCCc1noc(C(=O)NCC2CCOC2)n1` (centres unmarked) [(58), N-(tetrahydrofuran-3-ylmethyl)-3-butyl-1,2,4-oxadiazole-5-carboxamide], in the assay on Aphis gossypii, the pest or weed control at 500 ppm is at least 90%.
Consider `O=C(NCC1CCOCC1)c1cc(COCc2ccc(F)cc2)on1` [(90), N-(tetrahydropyran-4-ylmethyl)-5-(4-fluorobenzyloxymethyl)isoxazole-3-carboxamide], for which the pest or weed control at 0.1 % strength in the assay on Blattella germanica [5] and in the assay on Culex pipiens pallens [2] was at least 80% each time. Also, the pest or weed control at 500 ppm in the assay on Musca domestica [1] and in the assay on Aphis gossypii was at least 90% throughout.
Turning to `O=C(NCC1CCOC1)c1cc(CCCCCO)on1` (centres unmarked) [(142), N-(tetrahydrofuran-3-ylmethyl)-5-(5-hydroxypentyl)isoxazole-3-carboxamide], the pest or weed control at 500 ppm with Aphis gossypii is at least 90%.
As to `O=C(NCC1CCOC1)c1cc(COc2ccc(OC(F)(F)F)cc2)on1` (centres unmarked) [(190), N-(tetrahydrofuran-3-ylmethyl)-5-(4-trifluoromethoxyphenoxymethyl)isoxazole-3-carboxamide], the pest or weed control at 0.1 % strength in the assay with Blattella germanica [5] and with Culex pipiens pallens [2] was at least 80% each time. For the same molecule, the pest or weed control at 3.5 ppm in the assay with Culex pipiens pallens [6] and in the assay on Culex pipiens pallens [7] was at least 90% each time. The values for the pest or weed control at 500 ppm in the assay on Plutella xylostella and in the assay on Spodoptera litura were at least 90% and at least 80%, respectively.
Take `O=C(NCC1CCOCC1)c1cc(COc2ccc(OC(F)(F)F)cc2)on1` [(191), N-(tetrahydropyran-4-ylmethyl)-5-(4-trifluoromethoxyphenoxymethyl)isoxazole-3-carboxamide]: the pest or weed control at 0.1 % strength in the assay on Culex pipiens pallens [2] was at least 80%. The pest or weed control at 3.5 ppm with Culex pipiens pallens [6] and in the assay with Culex pipiens pallens [7] was at least 90% in each case. The values for the pest or weed control at 500 ppm in the assay on Plutella xylostella and with Spodoptera litura were at least 90% and at least 80%, respectively.
Regarding `O=C(NCC1CCOC1)c1cc(COc2cccc(F)c2)on1` (centres unmarked) [(194), N-(tetrahydrofuran-3-ylmethyl)-5-(3-fluorophenoxymethyl)isoxazole-3-carboxamide], the pest or weed control at 0.1 % strength in the assay on Blattella germanica [5] and in the assay on Culex pipiens pallens [2] was at least 80% each time. For the same molecule, the pest or weed control at 500 ppm in the assay with Aphis gossypii was at least 90%.
Take `O=C(NCC1CCOCC1)c1cc(COc2cccc(OC(F)(F)F)c2)on1` [(201), N-(tetrahydropyran-4-ylmethyl)-5-(3-trifluoromethoxyphenoxymethyl)isoxazole-3-carboxamide]: the pest or weed control at 0.1 % strength with Culex pipiens pallens [2] is at least 80%. The pest or weed control at 3.5 ppm with Culex pipiens pallens [6] and in the assay with Culex pipiens pallens [7] was at least 90% throughout. The results for the pest or weed control at 500 ppm in the assay on Plutella xylostella and in the assay on Spodoptera litura were at least 90% and at least 80%, respectively.
Regarding `O=C(NCC1CCOC1)c1cc(COc2ccc3c(c2)OCO3)on1` (centres unmarked) [(204), N-(tetrahydrofuran-3-ylmethyl)-5-(5-(1,3-benzodioxolanyl)oxymethyl)isoxazole-3-carboxamide], the pest or weed control at 0.1 % strength in the assay with Blattella germanica [5] and in the assay on Culex pipiens pallens [2] was at least 80% each time. In the assay with Aphis gossypii, the pest or weed control at 500 ppm was at least 90%.
